This is an account of results in US20060128724A1, “Pyrazole-substituted aminoheteroaryl compounds as protein kinase inhibitors” (AGOURON PHARMACEUTICALS, INC., priority 2004, published 2006).

Molecules are shown by their SMILES.

The first assay deals with T1, c-MET (HGFR) (Homo sapiens, UniProt P08581).
T1 construct: purchased Upstate 14-526
T1 sequence (P08581 974-1390 limits assumed): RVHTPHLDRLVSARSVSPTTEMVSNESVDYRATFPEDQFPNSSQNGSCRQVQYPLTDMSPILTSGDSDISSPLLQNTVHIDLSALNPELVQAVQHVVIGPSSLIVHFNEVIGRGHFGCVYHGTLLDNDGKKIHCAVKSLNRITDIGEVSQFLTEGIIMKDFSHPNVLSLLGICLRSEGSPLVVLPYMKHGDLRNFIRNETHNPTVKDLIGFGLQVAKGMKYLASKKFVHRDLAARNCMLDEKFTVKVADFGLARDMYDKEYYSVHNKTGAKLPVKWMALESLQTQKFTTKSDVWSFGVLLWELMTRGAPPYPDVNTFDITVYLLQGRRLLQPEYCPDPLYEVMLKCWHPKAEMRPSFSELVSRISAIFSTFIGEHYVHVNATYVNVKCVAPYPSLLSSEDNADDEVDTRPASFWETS
Briefly: HGFR Continuous-Coupled Spectrophotometric Assay. It counts as biochemical. The following applies: Met-2 substrate peptide, 50 nM HGFR, 37° C.; read-out: c-Met Ki. From the text: The following in vitro assay may be used to determine the level of activity and effect of the different compounds of the present invention on one or more of the PKs. Similar assays can be designed along the same lines for any PK using techniques well known in the art.
The general procedure is as follows: compounds and kinase assay reagents are introduced into test wells. The assay is initiated by addition of the kinase enzyme. Enzyme inhibitors reduce the measured activity of the enzyme.
In the continuous-coupled spectrophotometric assay the time-dependent production of ADP by the kinase is determined by analysis of the rate of consumption of NADH by measurement of the decrease in absorbance at 340 nm. As the PK produces ADP it is re-converted to ATP by reaction with phosphoenol pyruvate and pyruvate kinase. Pyruvate is also produced in this reaction. Pyruvate is subsequently converted to lactate by reaction with lactate dehydrogenase, which simultaneously converts NADH to NAD.
HGFR Continuous-Coupled Spectrophotometric Assay
This assay analyzes the tyrosine kinase activity of HGFR on the Met-2 substrate peptide, a peptide derived from the activation loop of the HGFR.
• 1. […] Dissolve up in 200 mM HEPES, pH 7.5 at 10 mM stock. • 3. 1 M PEP (phospho-enol-pyruvate) in 200 mM HEPES, pH 7.5 • 4. 100 mM NADH (B-Nicotinamide Adenine Dinucleotide, Reduced Form) in 200 mM HEPES, pH 7.5 • 5. 4 M MgCl2 (Magnesium Chloride) in ddH2O • 6. 1 M DTT (Dithiothreitol) in 200 mM HEPES, pH 7.5 • 7. 15 Units/mL LDH (Lactic Dehydrogenase) • 8. 15 Units/mL PK (Pyruvate Kinase) • 9. 5M NaCl dissolved in ddH2O • 10. Tween-20 (Protein Grade) 10% Solution • 11. 1 M HEPES buffer: (N-[2-Hydroxethyl]piperazine-N-[2-ethanesulfonic acid]) Sodium Salt. Dissolve in ddH2O, adjust pH to 7.5, bring volume to 1 L. Filter at 0.1 μm. • 12. […] 100% DMSO (SIGMA) • 14. […] Beckman DU-650 w/micro cell holders • 18. Beckman 4-position micro cell cuvette Procedure:
Prep Dilution Buffer (DB) for Enzyme (For 30 mL prep) • 1. DB final concentration is 2 mM DTT, 25 mM NaCl2, 5 mM MgCl2, 0.01% Tween-20, and 50 mM HEPES buffer, pH 7.5. • 2. Make up 50 mM HEPES by adding 1.5 mL 1 M HEPES into 28.1 mL of ddH2O. Add rest of the reagents. Into 50 mL conical vial, add 60 μL of 1M DTT, 150 μL 5M NaCl2, 150 μL 1M MgCl2, and 30 μL of 10% Tween-20 to give total volume of 30 mL. • 3. […] Aliquot out DB at 1 mL/tube and label tubes as “DB HGFR” • 5. Note: This can be prepared and stored ahead of time. • 6. Freeze un-used aliquots in microcentrifuge tubes at −20° C. freezer. […] For compound dilution plate, add 4 μL of 10 mM stock into column 1 of plate, and bring volume to 100 μL with 100% DMSO. • 2. Set up the Precision 2000 dilution method. A final concentration of 200 μM compound in 50% DMSO, 100 mM HEPES (1:2 serial dilution). Prep Coupled Enzymatic Buffer:
1. Final concentration in assay:
• 2. For a 10 mL reaction buffer add 10 μL of 1M PEP, 33 μL of 100 mM NADH, 50 μL of 4M MgCl2, 20 μL of 1M DTT, 6 μL of 500 mM ATP, and 500 μL of 10 mM Met-2 peptide into 100 mM HEPES buffer pH 7.5 and vortex/mix. • 3. Add coupling enzymes, LDH and PK, into reaction mix. Mix by gentle inversion. Running Samples
1. Spectrophotometer settings:
• 2. Add 85 μL of CE reaction mix into each well of assay plate. • 3. Add 5 μL of diluted compound into a well of the assay plate. • 4. Add 5 μL of 50% DMSO for negative control into last column of assay plate. • 5. Mix with multi-channel pipettor or orbital shaker. • 6. Pre-incubate for 10 minutes at 37° C. • 7. Add 10 μL of 500 nM HGFR to each well of assay plate; the final HGFR concentration is 50 nM in a total final volume of 100 μL. • 8. Measure activity for 10 minutes at λ=340 nm and 37° C.
As to `C[C@@H](Oc1cc(-c2cnn(C3CCN(C(=O)CO)CC3)c2)cnc1N)c1c(Cl)ccc(F)c1Cl` [Example 47, 1-[4-(4-{6-Amino-5-[(R)-1-(2,6-dichloro-3-fluoro-phenyl)-ethoxy]-pyridin-3-yl}-pyrazol-1-yl)-piperidin-1-yl]-2-hydroxy-ethanone], the Ki worked out at 4 nM.
Same read-out and setting: with `CC(Oc1cc(-c2cnn(C3CCC3)c2)cnc1N)c1c(Cl)ccc(F)c1Cl` (stereo not shown) [Example 49, 5-(1-Cyclobutyl-1H-pyrazol-4-yl)-3-[1-(2,6-dichloro-3-fluoro-phenyl)-ethoxy]-pyridin-2-ylamine] the figure was 20 nM; with `CC(Oc1cc(-c2cnn(C3CCN(S(C)(=O)=O)CC3)c2)cnc1N)c1c(Cl)ccc(F)c1Cl` (stereo not shown) [Example 50, 3-[1-(2,6-Dichloro-3-fluoro-phenyl)-ethoxy]-5-[1-(1-methanesulfonyl-piperidin-4-yl)-1H-pyrazol-4-yl]-pyridin-2-ylamine], 10 nM.
On the same count and under the same terms, then `CCN(CC)C(=O)C(C)(C)n1cc(-c2cnc(N)c(OC(C)c3c(Cl)ccc(F)c3Cl)c2)cn1` (stereo not shown) [Example 55, 2-(4-{6-Amino-5-[1-(2,6-dichloro-3-fluoro-phenyl)-ethoxy]-pyridin-3-yl}-pyrazol-1-yl)-N,N-diethyl-isobutyramide], with 396 nM; and `CC(Oc1cc(-c2cnn(C(C)(C)C(=O)N3CC[C@H](O)C3)c2)cnc1N)c1c(Cl)ccc(F)c1Cl` (stereo partly drawn) [Example 56, 2-(4-{6-Amino-5-[1-(2,6-dichloro-3-fluoro-phenyl)-ethoxy]-pyridin-3-yl}-pyrazol-1-yl)-1-((S)-3-hydroxy-pyrrolidin-1-yl)-2-methyl-propan-1-one], with 470 nM.
With `CC(Oc1cc(-c2cnn(C(C)(C)C(=O)N3CCCC3)c2)cnc1N)c1c(Cl)ccc(F)c1Cl` (stereo not shown) [Example 57, 2-(4-{6-Amino-5-[1-(2,6-dichloro-3-fluoro-phenyl)-ethoxy]-pyridin-3-yl}-pyrazol-1-yl)-2-methyl-1-pyrrolidin-1-yl-propan-1-one], the Ki was determined as 425 nM.
Still for that read-out and setting: then `CC(Oc1cc(-c2cnn(C(C)(C)C(=O)N(C)C)c2)cnc1N)c1c(Cl)ccc(F)c1Cl` (stereo not shown) [Example 58, 2-(4-{6-Amino-5-[1-(2,6-dichloro-3-fluoro-phenyl)-ethoxy]-pyridin-3-yl}-pyrazol-1-yl)-N,N-dimethyl-isobutyramide], with 125 nM.
As for `CC(Oc1cc(-c2cnn(C(C)(C)CO)c2)cnc1N)c1c(Cl)ccc(F)c1Cl` (stereo not shown) [Example 59, 2-(4-{6-Amino-5-[1-(2,6-dichloro-3-fluoro-phenyl)-ethoxy]-pyridin-3-yl}-pyrazol-1-yl)-2-methyl-propan-1-ol], the Ki was found to be 14 nM.
On the same count and under the same terms, then `CC(Oc1cc(-c2cnn(C(C)(C)CN(C)C)c2)cnc1N)c1c(Cl)ccc(F)c1Cl` (stereo not shown) [Example 60, 3-[1-(2,6-Dichloro-3-fluoro-phenyl)-ethoxy]-5-[1-(2-dimethylamino-1,1-dimethyl-ethyl)-1H-pyrazol-4-yl]-pyridin-2-ylamine], with 84 nM.
Same read-out and setting: with `CC(Oc1cc(-c2cnn(C(C)(C)CN3CC[C@H](O)C3)c2)cnc1N)c1c(Cl)ccc(F)c1Cl` (stereo partly drawn) [Example 61, (S)-1-[2-(4-{6-Amino-5-[1-(2,6-dichloro-3-fluoro-phenyl)-ethoxy]-pyridin-3-yl}-pyrazol-1-yl)-2-methyl-propyl]-pyrrolidin-3-ol] the figure was 70 nM; with `CC(Oc1cc(-c2cnn(C(C)(C)COCCN3CCCC3)c2)cnc1N)c1c(Cl)ccc(F)c1Cl` (stereo not shown) [Example 62, 3-[1-(2,6-Dichloro-3-fluoro-phenyl)-ethoxy]-5-{1-[1,1-dimethyl-2-(2-pyrrolidin-1-yl-ethoxy)-ethyl]-1H-pyrazol-4-yl}-pyridin-2-ylamine], 229 nM; with `CC(Oc1cc(-c2cnn(C[C@H]3CCCN3)c2)cnc1N)c1c(Cl)ccc(F)c1Cl` (stereo partly drawn) [Example 63, 3-[1-(2,6-Dichloro-3-fluoro-phenyl)-ethoxy]-5-(1-(R)-1-pyrrolidin-2-ylmethyl-1H-pyrazol-4-yl)-pyridin-2-ylamine], 72 nM.
The same measure, in the same setting: with `CC(Oc1cc(-c2cnn(C[C@@H]3CCCN3)c2)cnc1N)c1c(Cl)ccc(F)c1Cl` (stereo partly drawn) [Example 64, 3-[1-(2,6-Dichloro-3-fluoro-phenyl)-ethoxy]-5-(i-(S)-1-pyrrolidin-2-ylmethyl-1H-pyrazol-4-yl)-pyridin-2-ylamine] the figure was 41.5 nM; with `C[C@@H](Oc1nc(-c2cnn(C3CCNCC3)c2)cnc1N)c1c(Cl)ccc(F)c1Cl` [Example 66, 3-[(R)-1-(2,6-Dichloro-3-fluoro-phenyl)-ethoxy]-5-(1-piperidin-4-yl-1H-pyrazol-4-yl)-pyrazin-2-ylamine], 10 nM.
As to `C[C@@H](Oc1nc(-c2cn[nH]c2)cnc1N)c1c(Cl)ccc(F)c1Cl` [Example 67, 3-[(R)-1-(2,6-Dichloro-3-fluoro-phenyl)-ethoxy]-5-(1H-pyrazol-4-yl)-pyrazin-2-ylamine], the Ki amounted to 65 nM.
Still for that read-out and setting: with `C[C@@H](Oc1nc(-c2cnn(C3CCN(C(=O)CO)CC3)c2)cnc1N)c1c(Cl)ccc(F)c1Cl` [Example 68, 1-[4-(4-{5-Amino-6-[(R)-1-(2,6-dichloro-3-fluoro-phenyl)-ethoxy]-pyrazin-2-yl}-pyrazol-1-yl)-piperidin-1-yl]-2-hydroxy-ethanone] the figure was 15 nM; with `C[C@@H](Oc1nc(-c2cnn(C3CCN(C)CC3)c2)cnc1N)c1c(Cl)ccc(F)c1Cl` [Example 69, 3-[(R)-1-(2,6-Dichloro-3-fluoro-phenyl)-ethoxy]-5-[1-(1-methyl-piperidin-4-yl)-1H-pyrazol-4-yl]-pyrazin-2-ylamine], 30 nM.
The same measure, in the same setting: with `C[C@@H](Oc1nc(-c2cnn(C3CCN(C(=O)CN(C)C)CC3)c2)cnc1N)c1c(Cl)ccc(F)c1Cl` [Example 70, 1-[4-(4-{5-Amino-6-[(R)-1-(2,6-dichloro-3-fluoro-phenyl)-ethoxy]-pyrazin-2-yl}-pyrazol-1-yl)-piperidin-1-yl]-2-dimethylamino-ethanone] the figure was 15 nM; with `CC(Oc1cc(-c2cnn(S(C)(=O)=O)c2)cnc1N)c1c(Cl)ccc(F)c1Cl` (stereo not shown) [Example 71, 3-[1-(2,6-Dichloro-3-fluoro-phenyl)-ethoxy]-5-(1-methanesulfonyl-1H-pyrazol-4-yl)-pyridin-2-ylamine], 170 nM; with `C[C@@H](Oc1cc(-c2cnn(C3CCNCC3)c2)cnc1N)c1c(F)ccc(F)c1Cl` [Example 72, 3-[(R)-1-(2-Chloro-3,6-difluoro-phenyl)-ethoxy]-5-(1-piperidin-4-yl-1H-pyrazol-4-yl)-pyridin-2-ylamine], 90 nM.
On the same count and under the same terms, then `CNCCn1cc(-c2cnc(N)c(OC(C)c3c(Cl)ccc(F)c3Cl)c2)cn1` (stereo not shown) [Example 73, 3-[1-(2,6-Dichloro-3-fluoro-phenyl)-ethoxy]-5-[1-(2-methylamino-ethyl)-1H-pyrazol-4-yl]-pyridin-2-ylamine], with 55 nM.

The same assay, now with this note: test concentration not given.
Take `Nc1ncc(-c2cn[nH]c2)cc1OC1CCCCc2ccc(F)cc21` (stereo not shown) [Example 54, 3-(3-Fluoro-6,7,8,9-tetrahydro-5H-benzocyclohepten-5-yloxy)-5-(1H-pyrazol-4-yl)-pyridin-2-ylamine]: the “c-Met % Inhibition” value came out at 21%.
